Laboratory results: patent US20230150970A1, “AMINOPYRIMIDINE DERIVATIVES AND THEIR USE AS ARYL HYDROCARBON RECEPTOR MODULATORS” (DONG-A ST CO., LTD., priority 2020, published 2023)

Biological target: T1, AhR (Homo sapiens, UniProt P35869)
T1 sequence (P35869 11-848): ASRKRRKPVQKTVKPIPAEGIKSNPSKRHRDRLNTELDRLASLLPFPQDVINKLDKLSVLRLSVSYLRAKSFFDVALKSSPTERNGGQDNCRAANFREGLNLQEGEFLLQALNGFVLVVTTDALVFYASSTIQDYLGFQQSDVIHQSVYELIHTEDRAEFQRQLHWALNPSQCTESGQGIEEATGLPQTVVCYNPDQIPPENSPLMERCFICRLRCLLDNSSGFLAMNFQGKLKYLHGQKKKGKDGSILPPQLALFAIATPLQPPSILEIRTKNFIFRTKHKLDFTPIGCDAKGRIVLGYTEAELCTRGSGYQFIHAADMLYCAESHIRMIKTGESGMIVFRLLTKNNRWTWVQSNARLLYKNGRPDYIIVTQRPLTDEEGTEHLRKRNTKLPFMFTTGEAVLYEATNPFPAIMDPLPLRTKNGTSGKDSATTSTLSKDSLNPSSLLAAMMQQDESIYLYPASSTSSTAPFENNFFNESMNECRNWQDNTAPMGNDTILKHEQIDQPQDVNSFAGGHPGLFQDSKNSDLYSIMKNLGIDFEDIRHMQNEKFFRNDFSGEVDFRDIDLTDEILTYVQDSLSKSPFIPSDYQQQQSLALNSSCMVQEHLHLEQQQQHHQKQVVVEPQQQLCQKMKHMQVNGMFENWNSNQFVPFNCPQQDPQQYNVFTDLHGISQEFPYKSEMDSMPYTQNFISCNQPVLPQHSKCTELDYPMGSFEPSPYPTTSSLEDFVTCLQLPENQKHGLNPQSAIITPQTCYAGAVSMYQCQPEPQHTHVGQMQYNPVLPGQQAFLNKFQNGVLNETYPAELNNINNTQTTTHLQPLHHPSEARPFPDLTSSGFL
Assay: In Vitro Assay 1: XRE-luciferase reporter assay, antagonism in human cell line (HepG2)
Details: Assay 1: AhR-Luc Human Antagonism (IC50, nM), unmarked values: kynurenine 200 μM, 6 hours

| Structure (SMILES) | IC50 |
| --- | --- |
| OCC1CCN(c2cc(-c3c(F)cc(F)cc3F)nc(-c3cccnc3)n2)CC1 [Example 277, (1-(2-(pyridin-3-yl)-6-(2,4,6-trifluorophenyl)pyrimidin-4-yl)piperidin-4-yl)methanol] | 100 to 1000 nM |
| OCC1CCN(c2cc(-c3ccc(N4CCOCC4)cc3)nc(-c3cccnc3O)n2)CC1 [Example 285, 3-(4-(4-(hydroxymethyl)piperidin-1-yl)-6-(4-morpholinophenyl)pyrimidin-2-yl)pyridin-2-ol] | 10 to 100 nM |
| Cn1cc(-c2nc(-c3ccc(N4CCOCC4)cc3)cc(N3CCC(CO)CC3)n2)cn1 [Example 286, (1-(2-(1-methyl-1H-pyrazol-4-yl)-6-(4-morpholinophenyl)pyrimidin-4-yl)piperidin-4-yl)methanol] | 100 to 1000 nM |
| Cn1cc(-c2nc(-c3ccc(N4CCOCC4)c(F)c3)cc(N3CCC(CO)CC3)n2)cn1 [Example 287, (1-(6-(3-fluoro-4-morpholinophenyl)-2-(1-methyl-1H-pyrazol-4-yl)pyrimidin-4-yl)piperidin-4-yl)methanol] | 100 to 1000 nM |
| OCC1CCN(c2cc(-c3ccc4[nH]ncc4c3)nc(-c3cccnc3)n2)CC1 [Example 288, (1-(6-(1H-indazol-5-yl)-2-(pyridin-3-yl)pyrimidin-4-yl)piperidin-4-yl)methanol] | 100 to 1000 nM |
| O=C1Cc2cc(-c3cc(N4CCC(CO)CC4)nc(-c4cccnc4)n3)ccc2N1 [Example 290, 5-(6-(4-(hydroxymethyl)piperidin-1-yl)-2-(pyridin-3-yl)pyrimidin-4-yl)indolin-2-one] | > 1000 nM |
| O=C1COCCN1c1ccc(-c2cc(N3CCC(CO)CC3)nc(-c3cccnc3)n2)cc1 [Example 291, 4-(4-(6-(4-(hydroxymethyl)piperidin-1-yl)-2-(pyridin-3-yl)pyrimidin-4-yl)phenyl)morpholin-3-one] | > 1000 nM |
| OCC1CCN(c2cc(-c3cncc(F)c3)nc(-c3cccnc3)n2)CC1 [Example 294, (1-(6-(5-fluoropyridin-3-yl)-2-(pyridin-3-yl)pyrimidin-4-yl)piperidin-4-yl)methanol] | 100 to 1000 nM |
| Oc1ncccc1-c1nc(-c2ccc(N3CCOCC3)nc2)cc(N2CC[C@H](O)C2)n1 [Example 295, (S)-3-(4-(3-hydroxypyrrolidin-1-yl)-6-(6-morpholinopyridin-3-yl)pyrimidin-2-yl)pyridin-2-ol] | > 1000 nM |
| O=[N+]([O-])c1cc(-c2cc(N3CC[C@H](O)C3)nc(-c3cccnc3)n2)ccc1F [Example 296, (S)-1-(6-(4-fluoro-3-nitrophenyl)-2-(pyridin-3-yl)pyrimidin-4-yl)pyrrolidin-3-ol] | > 1000 nM |
| O=[N+]([O-])c1cc(-c2cc(N3CC[C@H](O)C3)nc(-c3cccnc3)n2)ccc1N1CCOCC1 [Example 297, (S)-1-(6-(4-morpholino-3-nitrophenyl)-2-(pyridin-3-yl)pyrimidin-4-yl)pyrrolidin-3-ol] | > 1000 nM |
| Nc1cc(-c2cc(N3CC[C@H](O)C3)nc(-c3cccnc3)n2)ccc1N1CCOCC1 [Example 298, (S)-1-(6-(3-amino-4-morpholinophenyl)-2-(pyridin-3-yl)pyrimidin-4-yl)pyrrolidin-3-ol] | 10 to 100 nM |
| CC(=O)Nc1cc(-c2cc(N3CC[C@H](O)C3)nc(-c3cccnc3)n2)ccc1N1CCOCC1 [Example 299, (S)—N-(5-(6-(3-hydroxypyrrolidin-1-yl)-2-(pyridin-3-yl)pyrimidin-4-yl)-2-morpholinophenyl)acetamide] | > 1000 nM |
| CN(C)CCNc1ccc(-c2cc(N3CC[C@H](O)C3)nc(-c3cccnc3)n2)cn1 [Example 301, (S)-1-(6-(6-((2-(dimethylamino)ethyl)amino)pyridin-3-yl)-2-(pyridin-3-yl)pyrimidin-4-yl)pyrrolidin-3-ol] | 100 to 1000 nM |
| CC1CN(c2ccc(-c3cc(N4CC[C@H](O)C4)nc(-c4cccnc4)n3)cn2)CC(C)O1 (stereo partly drawn) [Example 302, (3S)-1-(6-(6-(2,6-dimethylmorpholino)pyridin-3-yl)-2-(pyridin-3-yl)pyrimidin-4-yl)pyrrolidin-3-ol] | > 1000 nM |
| O=S(=O)(CCO)N1CCN(c2cc(-c3ccc(Cl)cc3O)nc(-c3cccnc3)n2)CC1 [Example 303, 5-chloro-2-(6-(4-((2-hydroxyethyl)sulfonyl)piperazin-1-yl)-2-(pyridin-3-yl)pyrimidin-4-yl)phenol] | < 10 nM |
| Oc1cc(Cl)ccc1-c1cc(N2CC[C@H](O)C2)nc(-c2cccnc2O)n1 [Example 304, (S)-3-(4-(4-chloro-2-hydroxyphenyl)-6-(3-hydroxypyrrolidin-1-yl)pyrimidin-2-yl)pyridin-2-ol] | < 10 nM |
| C=CS(=O)(=O)N1CCN(c2cc(-c3ccc(Cl)cc3)nc(-c3cccnc3)n2)CC1 [Example 306, 4-(4-chlorophenyl)-2-(pyridin-3-yl)-6-(4-(vinylsulfonyl)piperazin-1-yl)pyrimidine] | 10 to 100 nM |
| OCC1CCN(c2cc(-c3ccc(Cl)cc3Cl)nc(-c3cccnc3)n2)CC1 [Example 307, (1-(6-(2,4-dichlorophenyl)-2-(pyridin-3-yl)pyrimidin-4-yl)piperidin-4-yl)methanol] | 10 to 100 nM |
| Cn1cc(-c2nc(-c3ccc(Cl)cc3)cc(N3CC[C@@H](C(=O)O)C3)n2)cn1 [Example 313, (R)-1-(6-(4-chlorophenyl)-2-(1-methyl-1H-pyrazol-4-yl)pyrimidin-4-yl)pyrrolidine-3-carboxylic acid] | > 1000 nM |
| O[C@H]1CCN(c2cc(-c3ccc(N4CCOCC4)nc3)nc(-c3cccnc3)n2)C1 [Example 315, (S)-1-(6-(6-morpholinopyridin-3-yl)-2-(pyridin-3-yl)pyrimidin-4-yl)pyrrolidin-3-ol] | < 10 nM |
| Oc1cc(Cl)ccc1-c1cc(N2CC[C@H](O)C2)nc(-c2cccnc2)n1 [Example 316, (S)-1-(6-(4-chloro-2-hydroxyphenyl)-2-(pyridin-3-yl)pyrimidin-4-yl)pyrrolidin-3-ol] | < 10 nM |

More lines, now with the values ahead:

| IC50 | Structure (SMILES) |
| --- | --- |
| < 10 nM | OC[C@@H]1CN(c2cc(-c3ccc(C(F)(F)F)cc3)nc(-c3cccnc3)n2)CCO1 [Example 279, (S)-(4-(2-(pyridin-3-yl)-6-(4-(trifluoromethyl)phenyl)pyrimidin-4-yl)morpholin-2-yl)methanol] |
| < 10 nM | OC[C@@H]1CCN(c2cc(-c3ccc(C(F)(F)F)cc3)nc(-c3cccnc3)n2)C[C@H]1F [Example 281, ((3S,4S)-3-fluoro-1-(2-(pyridin-3-yl)-6-(4-(trifluoromethyl)phenyl)pyrimidin-4-yl)piperidin-4-yl)methanol] |
| < 10 nM | O[C@H]1CN(c2cc(-c3ccc(Cl)cc3)nc(-c3cccnc3)n2)C[C@@H]1O [Example 284, (3S,4S)-1-(6-(4-chlorophenyl)-2-(pyridin-3-yl)pyrimidin-4-yl)pyrrolidine-3,4-diol] |
| > 1000 nM | O=C(O)c1ccc(-c2cc(N3CCC(CO)CC3)nc(-c3cccnc3)n2)cc1 [Example 292, 4-(6-(4-(hydroxymethyl)piperidin-1-yl)-2-(pyridin-3-yl)pyrimidin-4-yl)benzoic acid] |
| 100 to 1000 nM | O[C@H]1CCN(c2cc(-c3ccc(F)nc3)nc(-c3cccnc3)n2)C1 [Example 300, (S)-1-(6-(6-fluoropyridin-3-yl)-2-(pyridin-3-yl)pyrimidin-4-yl)pyrrolidin-3-ol] |
| > 1000 nM | Nc1ccc(-c2cc(N3CC[C@H](O)C3)nc(-c3cccnc3)n2)cc1 [Example 305, (S)-1-(6-(4-aminophenyl)-2-(pyridin-3-yl)pyrimidin-4-yl)pyrrolidin-3-ol] |
| 100 to 1000 nM | OC[C@@H]1CN(c2cc(-c3ccc(C(F)(F)F)cc3)nc(-c3cccnc3)n2)CCN1 [Example 308, (S)-(4-(2-(pyridin-3-yl)-6-(4-(trifluoromethyl)phenyl)pyrimidin-4-yl)piperazin-2-yl)methanol] |
| 10 to 100 nM | OC[C@H]1CN(c2cc(-c3ccc(C(F)(F)F)cc3)nc(-c3cccnc3)n2)CCN1 [Example 309, (R)-(4-(2-(pyridin-3-yl)-6-(4-(trifluoromethyl)phenyl)pyrimidin-4-yl)piperazin-2-yl)methanol] |
| 100 to 1000 nM | O=C(O)[C@@H]1CCN(c2cc(-c3ccc(C(F)(F)F)cc3)nc(-c3cccnc3)n2)C1 [Example 310, (R)-1-(2-(pyridin-3-yl)-6-(4-(trifluoromethyl)phenyl)pyrimidin-4-yl)pyrrolidine-3-carboxylic acid] |
| 100 to 1000 nM | O=C(O)[C@@H]1CCN(c2cc(-c3ccc(Cl)cc3)nc(-c3cccnc3)n2)C1 [Example 311, (R)-1-(6-(4-chlorophenyl)-2-(pyridin-3-yl)pyrimidin-4-yl)pyrrolidine-3-carboxylic acid] |

Same assay, conditions: read-out: Assay 1: AhR-Luc Human Antagonism (IC50), unmarked values: kynurenine 200 μM, 6 hours

| IC50 | Structure (SMILES) |
| --- | --- |
| > 1000 nM | Cn1ccc(-c2cc(N3CCC(CO)CC3)nc(-c3cccnc3)n2)n1 [Example 293, 4 (1-(6-(1-methyl-1H-pyrazol-3-yl)-2-(pyridin-3-yl)pyrimidin-4-yl)piperidin-4-yl)methanol] |
